Results as given in ChEMBL document CHEMBL1124835, “Structure-activity relationships of antineoplastic agents in multidrug resistance” (J Med Chem, 1990).

Columns and labels:
[1] = tested on: CCRF-CEM; assay: Effect on cross resistance of CCRF-CEM cells resistant to vincristine expressed as as log of ratio of molar concentration of compound inducing 50% growth inhibition in resistant to sensitive cells; assay type: functional, Homo sapiens
[2] = physchem; details: octanol/water, pH 7.4
[3] = tested on: CCRF-CEM; assay: Effect on cross resistance of CCRF-CEM cells resistant to vincristine expressed as log of ratio of molar concentration of compound inducing 50% growth inhibition in resistant to sensitive cells; assay type: functional, Homo sapiens

SMILES | Log CR [1] | logD [2] | Log CR [3]
COc1cc([C@@H]2c3cc4c(cc3[C@@H](O[C@@H]3O[C@@H]5CO[C@@H](c6cccs6)O[C@H]5[C@H](O)[C@H]3O)[C@H]3COC(=O)[C@H]23)OCO4)cc(OC)c1O [TENIPOSIDE] | 1.56 | 1.22 | –
COc1cc([C@@H]2c3cc4c(cc3[C@H](O)[C@H]3COC(=O)[C@H]23)OCO4)cc(OC)c1OC [PODOFILOX] | – | 2.01 | 0.07
